Measurements as given in patent publication US20040122044A1, “Utilization of substituted imidazo [1,2-A]-pyridin-3-yl-amide and imidazo [1,2-A]-pyridin-3-yl-amine compounds in pharmaceutical formulations” (priority 2001, published 2004).

Target: T1, NO synthase (Rattus norvegicus, UniProt P29476)
T1 construct: the tissue was broken down with a Polytron homogenizer for 1 min at 6,000 rpm; from tissue; host or cells: rat cerebellum, 20,000 g supernatant of homogenate
Test: HTS NO synthase assay
Assay type: biochemical
Conditions: enzyme preparation from rat cerebelli, [3H]arginine substrate
Protocol: This assay allows the determination of the percentage inhibition of NO synthase by a compound of formula I according to the invention by measurement of the NO synthase activity in the presence of the compound. In this procedure, NO synthase is mixed together with radioactively labelled arginine and the particular compound of formula I under suitable conditions. After interruption of the NO formation reaction at a given point in time, the amount of unreacted arginine is determined directly or indirectly. […]
In this HTS NO synthase assay, radioactive arginine is used as the substrate. […] With the aid of this procedure, the arginine substrate which remains is bonded to the cation exchanger, while the radioactive citrulline formed enzymatically is washed out quantitatively. After drying of the filter MTP and addition of scintillation liquid, the bound arginine can be counted on a scintillation counter. An NO synthase reaction which has not been inhibited is reflected in a low radioactivity. […] That is to say a high radioactivity is found on the filter. […]
The plate was then dried for 1 hour at 60° C. in a drying cabinet. […] After a waiting time of 1 hour, the plate was measured on a β-counter.

inhibition at 10 µM: 89%
SMILES: Cc1ccn2c(N)c(-c3ccsc3)nc2c1 [Example 1, 7-Methyl-2-thiophen-3-yl-imidazo[1,2-a]pyridin-3-ylamine]
